# Test results published in US20240216476A1, “COMBINATION OF BITTER RECEPTOR AGONIST AND GUT-SIGNALING COMPOUND” (AARDVARK THERAPEUTICS, INC., priority 2021, published 2024).
# Several values for one entry are separate records, joined by “and”; a condition that tells them apart may be missing. Identical values can stand only once. Entries after “also recorded” stand apart in the source; their conditions may differ. Like-named read-outs stand apart in the source and are kept apart here. Marks after values point to notes of the source that are not given here.
# Legend:
# [1] = Appetite suppression effect of DA in animals; assay type: in vivo
# Excerpt: Thus, twice daily dosing is preferred for abrogation of appetite throughout the day. […] Therefore, the preferred dosing for MetS treatment is QD.
# [2] = tested on: high fat diet induced obese (DIO) mouse model; test: 4-week study of DA, liraglutide or their combination in high fat diet induced obese (DIO) mice (Example 2); assay type: in vivo
# Experimental: After arrival at the testing facility, all animals were acclimated to the vivarium for a period no less than 3 days and placed on a 60% Fat Rodent Diet (D12492; Research Diets), 12:12 dark/light cycle and group housed, 2-3 in hepa-filtered cages. All treatments were continued for four weeks. During the study period, gross observation (animal behavior and clinical signs) was conducted, and body weight measurement was performed three times per week for each animal. At the end of the study, all animals were fasted overnight before measurements were taken for serum levels of glucose, insulin, hemoglobin A1c (HbA1c), low-density lipoprotein (LDL) cholesterol, high-density lipoprotein (HDL) cholesterol, triglyceride (TG), and bile acid (BA). Statistical analysis of data was performed using one tail Student's t-test on Excel.
# [3] = tested on: C57Bl/6J mice fed with high-fat diet; test: DA in C57Bl/6J mice fed with high-fat diet, 8 weeks (Table 11); assay type: in vivo, mouse
# Excerpt: Similarly, Table 11 provides a comparison of denatonium acetate (DA) with DPP-4 inhibitors in similar ob/ob mice model. The data for the DPP-4 inhibitors was obtained from Am. J. Physiol. Endocrinol. Metab. 2011; 300(2); E410-E421. Biochim. Biophys. Acta Gen. Subj. 2018; 1862(3):403-413. PLOS One. 2012; 7(6):e38744; and Aging Cell. 2019; 18(2):e12883.
# [4] = tested on: gut peptide hormones GLP-1, GLP-2 and PYY; test: Phase 1 clinical trial of DA: gut peptide hormones before and one hour after a single oral dose (Example 3); assay type: in vivo, human; conditions: in words, single dose DA 240 mg tablet vs placebo
# Experimental: This Example provides data of three gut peptide hormones from a phase 1 clinical trial of denatonium acetate after a single dose of DA at 240 mg in a tablet in the formulation disclosed herein. The subjects were either placebo or 240 mg DA and blood samples were taken just prior to dosing and one hour after oral dosing.
# ob/ob mice = test: DA in ob/ob mice fed with high-fat diet, 8 weeks (Table 10); assay type: in vivo, mouse; conditions: DA 50 mg/kg BID for 8 weeks
# Excerpt: The data for the DPP-4 inhibitors was obtained from J. Clin. Biochem. Nutr. 2015; 57(3):244-53. Acta Pharmacol. Sin. 2012; 33(8): 1013-22. J. Pharmacol. Exp. Ther. 2012; 342(1): 71-80; and Eur. J. Pharmacol. 2008; 588(2-3):325-32.
# [5] = tested on: AMLN-diet induced mice (fatty liver disease/NASH model); assay type: in vivo; conditions: in words
# Excerpt: This Example provides the results obtained from an in vivo mouse model of fatty liver disease treatment to investigate the therapeutic effect of DA on the treatment of NASH versus positive control semaglutide (a GLP-1 agonist marketed drug for lowering HbA1c). This study used a positive control semaglutide, a vehicle control, study drug DA and a combination of semaglutide and DA. Mouse strain (B6 mice) was used, and the animals were already adults (23 weeks old) when the study began because the animals were already fed an AMLN diet for 17 weeks prior to the study being initiated. The study dose began at 75 mg/kg BID.
# The study included 3 groups of 10 mice each, (A) vehicle control with distilled water by gavage BID, (B) DA by gavage BID, and (C) semaglutide […] sc QD. Body weights and changes were measured 3× per week. Serum metabolic markers (blood glucose, blood insulin, HbA1c, HDL, LDL triglycerides and bile acids) were measured at beginning of dosing (baseline) and end of study. At the end of the study, histopathology of liver samples and serum levels of inflammatory biomarkers (IL-6, TNFα, CK-18 and TGF-β) were evaluated. Histopathology was performed blindly with a scoring scale according to NAFLD Activity Score and Fibrosis Score according to Table 13. Table 14 identifies the kits and equipment used to measure serum parameters.
# [6] = human, in vivo, po
# Excerpt: Accordingly, the gut peptide hormone data in both the in vivo studies in the examples herein and the phase 1 clinical trial data in Example 3 show synergy for the treatment and/or management of glucagon-related diseases, disorders or conditions, various indications. […] The clinical data also corroborated the DIO mouse data (Example 2). Yet, the marketers of GLP-1 agonists (like those available from Novo Nordisk, Lilly) claim only GLP-1 is important for both diabetes and weight loss. Also, DPP-4 is an enzyme that degrades GLP-1 and PYY to give both of those hormones short half-lives. Accordingly, in some embodiments herein, a DPP-4 inhibitor is used as part of the API combination.
# Therefore, both the pharmacokinetic data in a clinical trial (Example 3) for DA and the pharmacokinetic data published for commercially-marketed sitagliptin, support non-cumulative toxicity risk. Accordingly, DPP-4i drugs and the denatonium salts listed herein are an effective oral combination for the treatment of obesity.
# For sitagliptin as a single agent, the current guidelines indicate a daily dose of 100 mg PO QD (notwithstanding for those with renal impairment, recommended doses can be as low as 25 mg to 50 mg PO QD). […] In view of DA's pharmacokinetics (substantial gut restriction) and relatively non-toxic nature, the optimal dose ranges can be safely adjusted higher. […]
# [7] = tested on: high-fat diet-induced obese (DIO) mice; assay type: in vivo; conditions: in words
# Experimental: This Example provides the results from an in vivo study of denatonium acetate and sitagliptin in high-fat diet-induced obese (DIO) mice. C57BL/6NTac mice (at least 12 weeks of age) were fed with a high fat diet. All mice were dosed orally by gavage as (a) Vehicle group (N=15) dosed with distilled water BID, (b) DA group (N=15) dosed at 75 mg/kg (denatonium weight) BID; (c) sitagliptin group (N=15) dosed by gavage with 10 mg/kg QD; and (d) DA+ sitagliptin group (N=15) treated with DA at 75 mg/kg (denatonium based weight) BID and sitagliptin at 10 mg/kg by gavage QD. The groups were dosed for 8 weeks followed by a 5-7 day […] period. Body weight and body weight changes were measured three times per week. Serum biomarker levels for blood glucose (after fasting 6-8 hours), blood insulin, percentage of blood HvA1c, HDL, LDL, total triglycerides (TG), total cholesterol (TC) and bile acid were measured twice during the study at day 28 and at the end (day 56) of the study. Cumulative food intake and water consumption for each animal was measured.
# [8] = in vivo; cited from earlier work
# [9] = pig, in vivo; cited from earlier work
# [10] = in vivo; cited from earlier work; remark: listed apart in the source
# [11] = each animal, end of study (Day 31), DA 75 mg/kg PO BID, liraglutide 200 μg/kg SC BID, 4-week dosing
# [12] = group mean, end of study (Day 31), DA 75 mg/kg PO BID, liraglutide 200 μg/kg SC BID, 4-week dosing
# [13] = in words, vs vehicle, Day 31, DA 75 mg/kg PO BID, liraglutide 200 μg/kg SC BID
# [14] = in words, Day 31, 4-week dosing
compound,measurement,setting,value
"CC(=O)[O-].CC[N+](CC)(CC(=O)Nc1c(C)cccc1C)Cc1ccccc1 [DA, denatonium acetate]",duration of observed appetite suppression effect,[1],about 8 hours
same,Body Weight Gain,[2]; [11],10.1 g and 6.7 g and 7.2 g (3×) and 9.6 g (2×) and 7.4 g and 5.2 g and 7 g and 8.1 g and 6.9 g and 11.2 g and 4.5 g and 7.5 g
same,Serum TG Level,[2]; [11],13.06 mmol/L and 13.49 mmol/L and 11.69 mmol/L and 13.35 mmol/L and 18.18 mmol/L and 14.27 mmol/L and 15.38 mmol/L and 12.93 mmol/L and 15.46 mmol/L and 19.24 mmol/L and 11.73 mmol/L and 15.13 mmol/L and 13.72 mmol/L and 13.59 mmol/L and 15.48 mmol/L
same,"Body Weight Gain, Mean",[2]; [12],7.69 g
same,"Serum TG Level, Mean",[2]; [12],14.45 mmol/L
same,serum BA level,"[2]; in words, vs vehicle control, Day 31, 4-week dosing",significant increase in serum BA level
same,Body Weight Gain,[2]; [13],significantly reduced
same,Serum TG Level,[2]; [13],significantly decreased serum TG level
same,serum HbA1c level,[2]; [14],did not show significant effect
same,serum LDL level,[2]; [14],no significant difference in serum LDL level
same,serum glucose level,[2]; [14],significantly decreased serum glucose level
same,serum insulin level,[2]; [14],considerably decreased serum insulin level
same,Control-adjusted Percent Change in Body Weight Gain,[3]; DA 75 mg/kg BID for 8 weeks,−33.9%*
same,Control-adjusted Percent Change in Fasting Blood Glucose,[3]; DA 75 mg/kg BID for 8 weeks,−5.3%
same,Control-adjusted Percent Change in GLP-1 Level,[3]; DA 75 mg/kg BID for 8 weeks,+27.5%*
same,Control-adjusted Percent Change in Insulin Level,[3]; DA 75 mg/kg BID for 8 weeks,−42.9%
same,Control-adjusted Percent Change in Lipid Levels: LDL,[3]; DA 75 mg/kg BID for 8 weeks,−18.3% in LDL
same,Control-adjusted Percent Change in HbA1c Level,"[3]; DA 75 mg/kg BID, at the end of Week 4",−3.7%* (at the
same,percent change for GLP-1 between time 0 and one hour after oral dosing,[4],the difference was significant
same,GLP-2 gut peptide hormone,[4]; one hour after dosing,trend for GLP-2 gut peptide hormone increase
same,PYY gut peptide hormone,[4]; one hour after dosing,trend for PYY gut peptide hormone increase
same,Control-adjusted Percent Change in Fasting Blood Glucose,ob/ob mice,−29.3%*
same,Control-adjusted Percent Change in HbA1c Level,ob/ob mice,+0.8%
same,Control-adjusted Percent Change in Insulin Level,ob/ob mice,+4.3%
same,Control-adjusted Percent Change in LDL Level,ob/ob mice,−27.5%*
same,Control-adjusted Percent Change in TG Level,ob/ob mice,−21.2%*
same,NAFLD Activity Score based on blinded histopathologic review,"[5]; 12 weeks, DA 75 then 50 mg/kg BID by gavage, semaglutide 10 mmol/kg sc QD",significantly improved NAFLD Activity Score
same,body weight and body weight change,"[5]; 12 weeks, DA 75 then 50 mg/kg BID, semaglutide 10 mmol/kg sc QD",remarkable effect on body weight
same,HDLs,[5]; end of study,significantly decreased
same,LDLs,[5]; end of study,significantly decreased
same,TGs,[5]; end of study,significantly decreased
same,gut-restricted,[6],~99%
same,safe dosing in phase 1 clinical trial,[6],safely dosed to 240 mg PO BID
same,fasting blood glucose levels,"[7]; vs vehicle controls, day 28 and day 56",significantly decreased fasting blood glucose levels
same,high-density lipoprotein (HDL) levels,"[7]; vs vehicle controls, day 56 (FIG. 22B)",significantly decreased high-density lipoprotein (HDL) levels
same,weight loss,[7]; 56-day study summary,significant weight loss; also recorded: statistically significant reduction of weight in the DA group versus the sitagliptin group
same,effect on body weight (relative body weight percentage and relative body weight change),"[7]; DA 75 mg/kg BID, sitagliptin 10 mg/kg QD by gavage, 8 weeks",much greater effect on body weight
same,effect on body weight,[7]; day 56,significant effect on body weight
same,"translationally relevant biomarkers (blood glucose, HbA1C, insulin, triglycerides, LDL cholesterol, total cholesterol)",[7]; relative to sitagliptin alone,superior benefit relative to sitagliptin alone
O=C1[C@H](CC[C@H](O)c2ccc(F)cc2)[C@@H](c2ccc(O)cc2)N1c1ccc(F)cc1 [Ezetimibe],reduction of LDL cholesterol,[8],about 18%
PYY (3-36): DPP-4 cleaved form of the gut peptide hormone PYY,half-life,[9],< 30 min
PYY: gut peptide hormone released from L-cells,half-life,[10],9 to 14 min
